Assay results as given in ChEMBL document CHEMBL4002625, “Synthesis and structure-activity relationship studies of phenolic hydroxyl derivatives based on quinoxalinone as aldose reductase inhibitors with antioxidant activity” (Bioorg Med Chem Lett, 2017).

Key:
[1] = target: Aldo-keto reductase family 1 member B1 (Rattus norvegicus, UniProt P07943); experiment: Inhibition of rat lens ALR2 using D,L-glyceraldehyde as substrate assessed as decrease in NADPH oxidation preincubated for 10 mins followed by substrate addition measured for 4 mins by spectrophotometer
[2] = Antioxidant activity assessed as DPPH radical scavenging activity at 50 uM after 240 mins by UV spectrophotometer relative to control; type: functional
[3] = Antioxidant activity assessed as DPPH radical scavenging activity at 10 uM after 240 mins by UV spectrophotometer relative to control; type: functional
[4] = Antioxidant activity assessed as DPPH radical scavenging activity at 100 uM after 240 mins by UV spectrophotometer relative to control; type: functional

| Compound | IC50 [1] | Activity [2] | Activity [3] | Activity [4] |
| --- | --- | --- | --- | --- |
| COc1ccc2c(c1)nc(-c1c(O)cc(O)cc1O)c(=O)n2CC(=O)O | 273 nM | 53.7% | 36.4% | 68.7% |
| O=C(O)Cn1c(=O)c(/C=C/c2ccc(O)c(O)c2)nc2ccc(O)cc21 | 102 nM | 82.1% | 70.5% | 96.2% |
| COc1ccc2c(c1)nc(/C=C/c1ccc(O)cc1)c(=O)n2CC(=O)O | 98 nM | 27.6% | – | 51.8% |
| O=C(O)Cn1c(=O)c(/C=C/c2ccc(O)c(O)c2)nc2cc(O)ccc21 | 159 nM | 77.8% | 64.2% | 90.4% |
| Cc1c(C)c2c(c(C)c1O)CCC(C)(C(=O)O)O2 (stereo not given) | – | 92.7% | 89.3% | 96.5% |
| COc1ccc2nc(-c3c(O)cc(O)cc3O)c(=O)n(CC(=O)O)c2c1 | 116 nM | 69.3% | 40.6% | 80.6% |
| COc1ccc2c(c1)nc(CCc1ccc(O)c(OC)c1)c(=O)n2CC(=O)O | 983 nM | – | – | 31.9% |
| COc1ccc2nc(CCc3ccc(O)cc3)c(=O)n(CC(=O)O)c2c1 | 508 nM | – | – | 20.7% |
| COc1ccc2nc(/C=C/c3ccc(O)c(OC)c3)c(=O)n(CC(=O)O)c2c1 | 210 nM | 65.9% | 42.2% | 83.5% |
| COc1ccc2c(c1)nc(/C=C/c1ccc(O)c(OC)c1)c(=O)n2CC(=O)O | 185 nM | 61.4% | 39.7% | 74.9% |
| COc1ccc2nc(CCc3ccc(O)c(OC)c3)c(=O)n(CC(=O)O)c2c1 | 847 nM | – | – | 28.3% |

More lines, main results first:

| IC50 [1] | Compound | Activity [2] | Activity [3] | Activity [4] |
| --- | --- | --- | --- | --- |
| 6820 nM | COc1ccc2c(c1)nc(-c1ccccc1)c(=O)n2CC(=O)O | – | – | – |
| 1300 nM | COc1ccc2nc(CCc3ccccc3)c(=O)n(CC(=O)O)c2c1 | – | – | – |
| 4290 nM | O=C(O)Cn1c(=O)c(-c2ccccc2)nc2cc(O)ccc21 | – | – | 15.8% |
| 2080 nM | COc1ccc2nc(-c3ccc(O)cc3)c(=O)n(CC(=O)O)c2c1 | – | – | 12.3% |
| 179 nM | COc1ccc2nc(-c3ccc(O)cc3O)c(=O)n(CC(=O)O)c2c1 | – | – | 37.2% |
| 865 nM | COc1ccc2nc(-c3cc(O)ccc3O)c(=O)n(CC(=O)O)c2c1 | – | – | 25.4% |
| 3950 nM | O=C(O)Cn1c(=O)c(-c2ccccc2)nc2ccc(O)cc21 | – | – | 19.1% |
| 924 nM | COc1ccc2nc(/C=C/c3ccccc3)c(=O)n(CC(=O)O)c2c1 | – | – | – |
| 5310 nM | COc1ccc2nc(-c3ccccc3)c(=O)n(CC(=O)O)c2c1 | – | – | – |
| 3410 nM | COc1ccc2nc(-c3cccc(O)c3)c(=O)n(CC(=O)O)c2c1 | – | – | 8.5% |
| 59 nM | COc1ccc2nc(/C=C/c3ccc(O)cc3)c(=O)n(CC(=O)O)c2c1 | 34.3% | – | 59.2% |
